Laboratory results taken from US20110082130A1 (LIGAND PHARMACEUTICALS, INC., priority 2006, published 2011).

Biological target: T1, chimeric human H3 receptor (Homo sapiens, UniProt Q9Y5N1)
T1 construct: made in house; host or cells: Sf9 insect cells (baculovirus); P2 membrane preparation
Experiment: Chimeric human H3 receptor GTP binding assay (agonist-stimulated GTP-gamma35S binding, Example 7)
Format: biochemical
Settings: Table I; P2 membranes of Sf9 cells, 1 μM histamine as agonist, Ki from IC50 by Cheng-Prusoff
Summary of the method: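 Sf9 membranes co-expressing chimeric human H3 receptor and heterotrimeric G-protein, 35 μg/tube, in pH 7.4 Tris buffer with 10 μM GDP. Test compounds (10^−10–10^−6 M) competed against 1 μM histamine, […] GTP-gamma35S, 60 min at room temperature. Filter-bound radioactivity counted; IC50 converted to Ki by Cheng-Prusoff. Agonism/inverse agonism tested without histamine (EC50).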

T1 sequence (Q9Y5N1 with tags, fused parts or gaps): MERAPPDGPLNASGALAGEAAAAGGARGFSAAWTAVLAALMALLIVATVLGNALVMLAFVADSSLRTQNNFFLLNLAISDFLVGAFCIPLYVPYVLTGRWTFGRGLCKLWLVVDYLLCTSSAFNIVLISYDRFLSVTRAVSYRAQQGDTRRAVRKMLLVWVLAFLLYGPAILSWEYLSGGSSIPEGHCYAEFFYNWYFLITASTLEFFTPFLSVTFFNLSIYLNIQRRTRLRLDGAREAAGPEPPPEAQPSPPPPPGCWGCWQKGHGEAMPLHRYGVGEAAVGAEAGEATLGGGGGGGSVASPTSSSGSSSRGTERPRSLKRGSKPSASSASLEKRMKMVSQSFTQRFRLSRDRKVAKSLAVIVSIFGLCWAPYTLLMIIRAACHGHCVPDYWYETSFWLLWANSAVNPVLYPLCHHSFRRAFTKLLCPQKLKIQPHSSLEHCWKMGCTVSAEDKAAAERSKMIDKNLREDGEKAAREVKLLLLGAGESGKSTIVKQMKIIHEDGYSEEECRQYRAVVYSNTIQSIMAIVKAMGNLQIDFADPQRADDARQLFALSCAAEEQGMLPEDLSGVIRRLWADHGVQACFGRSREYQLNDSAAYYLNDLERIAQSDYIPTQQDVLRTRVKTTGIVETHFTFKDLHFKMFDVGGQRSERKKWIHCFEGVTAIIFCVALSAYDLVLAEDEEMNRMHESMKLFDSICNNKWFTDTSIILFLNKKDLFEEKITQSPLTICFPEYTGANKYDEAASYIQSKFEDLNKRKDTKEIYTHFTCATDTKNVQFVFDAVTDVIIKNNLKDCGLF

Ki, < 1000 nM:
CC(=O)c1ccc2c(c1)CCN(CC(=O)N1CCN(C3CCC3)CC1)C2 [Compound 61, 1-{2-[2-(4-cyclobutylpiperazin-1-yl)-2-oxoethyl]-1,2,3,4-tetrahydroisoquinolin-6-yl}ethanone]
COc1ccc2c(c1)CCN(CC(=O)N1CCN(C3CCC3)CC1)C2 [Compound 60, 2-[2-(4-cyclobutylpiperazin-1-yl)-2-oxoethyl]-6-methoxy-1,2,3,4-tetrahydroisoquinoline]

Same assay, conditions: Table II "Ki", symbol *; assay of Example 7

Ki, < 1000 nM:
COc1ccc(-c2ccc3c(c2)CCN(CC(=O)N2CCN(C4CCCCC4)CC2)C3)cc1OC [Compound 526, 2-[2-(4-cyclohexylpiperazin-1-yl)-2-oxoethyl]-6-(3,4-dimethoxyphenyl)-1,2,3,4-tetrahydroisoquinoline]
O=C1CCCN1CCCNc1ccc2c(n1)CCN(CC(=O)N1CCN(C3CCC3)CC1)C2 [Compound 653, 1-[3-({6-[2-(4-cyclobutylpiperazin-1-yl)-2-oxoethyl]-5,6,7,8-tetrahydro-1,6-naphthyridin-2-yl}amino)propyl] pyrrolidin-2-one]
COc1ccc(-c2ccc3c(c2)CCN(CC(=O)N2CCN(C4CCCC4)CC2)C3)cc1 [Compound 521, 2-[2-(4-cyclopentylpiperazin-1-yl)-2-oxoethyl]-6-(4-methoxyphenyl)-1,2,3,4-tetrahydroisoquinoline]
C[C@H]1CN(C(=O)CN2CCc3cc(-c4cncnc4)ccc3C2)CCN1C1CCCC1 [Compound 610, 2-{2-[(3S)-4-cyclopentyl-3-methylpiperazin-1-yl]-2-oxoethyl}-6-pyrimidin-5-yl-1,2,3,4-tetrahydroisoquinoline]
CCOc1cccc(-c2ccc3c(c2)CCN(CC(=O)N2CCN(C4CCCC4)CC2)C3)c1 [Compound 483, 2-[2-(4-cyclopentylpiperazin-1-yl)-2-oxoethyl]-6-(3-ethoxyphenyl)-1,2,3,4-tetrahydroisoquinoline]
CN(C)c1ccc(-c2ccc3c(c2)CCN(CC(=O)N2CCN(C4CCCC4)CC2)C3)cc1 [Compound 533, 4-{2-[2-(4-cyclopentylpiperazin-1-yl)-2-oxoethyl]-1,2,3,4-tetrahydroisoquinolin-6-yl}-N,N-dimethylaniline]
Cc1ccnc(-c2ccc3c(c2)CCN(CC(=O)N2CCN(C4CCC4)CC2)C3)c1 [Compound 630, 2-[2-(4-cyclobutylpiperazin-1-yl)-2-oxoethyl]-6-(4-methylpyridin-2-yl)-1,2,3,4-tetrahydroisoquinoline]

Same assay, conditions: Table II; "*" = Ki in assay of Example 7 less than 1 micromolar

Ki, < 1000 nM:
O=C(CN1CCc2cc(-n3cccnc3=O)ccc2C1)N1CCN(C2CCC2)CC1 [Compound 213, 1-{2-[2-(4-cyclobutylpiperazin-1-yl)-2-oxoethyl]-1,2,3,4-tetrahydroisoquinolin-6-yl}pyrimidin-2(1H)-one]
O=C(CN1CCc2nc(-c3cccnn3)sc2C1)N1CCN(C2CCC2)CC1 [Compound 279, 5-[2-(4-cyclobutylpiperazin-1-yl)-2-oxoethyl]-2-pyridazin-3-yl-4,5,6,7-tetrahydro[1,3]thiazolo [5,4-c]pyridine]
O=C(CN1CCc2nn(-c3cncc(N4CCCC4)n3)cc2C1)N1CCN(C2CCC2)CC1 [Compound 268, 5-[2-(4-cyclobutylpiperazin-1-yl)-2-oxoethyl]-2-(6-pyrrolidin-1-ylpyrazin-2-yl)-4,5,6,7-tetrahydro-2H-pyrazolo[4,3-c]pyridine]
O=C(CN1CCc2cc(Oc3ccc(C(F)(F)F)cn3)ccc2C1)N1CCN(C2CCC2)CC1 [Compound 198, 2-[2-(4-cyclobutylpiperazin-1-yl)-2-oxoethyl]-6-{[5-(trifluoromethyl)pyridin-2-yl]oxy}-1,2,3,4-tetrahydroisoquinoline]
CC(=O)c1nc2c(s1)CN(CC(=O)N1CCN(C3CCC3)CC1)CC2 [Compound 103, 1-{5-[2-(4-cyclobutylpiperazin-1-yl)-2-oxoethyl]-4,5,6,7-tetrahydro[1,3]thiazolo [5,4-c]pyridin-2-yl}ethanone]
CC1CN(C(=O)CN2CCc3nc(-c4nccs4)sc3C2)CCN1C1CCC1 (stereo not shown) [Compound 115, 5-[2-(4-cyclobutyl-3-methylpiperazin-1-yl)-2-oxoethyl]-2-(1,3-thiazol-2-yl)-4,5,6,7-tetrahydro[1,3]thiazolo [5,4-c]pyridine]
O=C(CN1CCc2nn(-c3ccc(F)cc3)cc2C1)N1CCN(C2CCC2)CC1 [Compound 236, 5-[2-(4-cyclobutylpiperazin-1-yl)-2-oxoethyl]-2-(4-fluorophenyl)-4,5,6,7-tetrahydro-2H-pyrazolo[4,3-c]pyridine]
O=C(CN1CCc2nn(-c3ncccn3)cc2C1)N1CCN(C2CCC2)CC1 [Compound 248, 5-[2-(4-cyclobutylpiperazin-1-yl)-2-oxoethyl]-2-pyrimidin-2-yl-4,5,6,7-tetrahydro-2H-pyrazolo[4,3-c]pyridine]
NC(=O)c1cnn(-c2ccc3c(c2)CCN(CC(=O)N2CCN(C4CCC4)CC2)C3)c1 [Compound 243, 1-{2-[2-(4-cyclobutylpiperazin-1-yl)-2-oxoethyl]-1,2,3,4-tetrahydroisoquinolin-6-yl}-1H-pyrazole-4-carboxamide]
O=C(CN1CCc2nc(N3CCC(F)(F)C3)ccc2C1)N1CCN(C2CCC2)CC1 [Compound 242, 6-[2-(4-cyclobutylpiperazin-1-yl)-2-oxoethyl]-2-(3,3-difluoropyrrolidin-1-yl)-5,6,7,8-tetrahydro-1,6-naphthyridine]
O=C(CN1CCc2cc(N3CCCC3)nnc2C1)N1CCN(C2CCC2)CC1 [Compound 221, 7-[2-(4-cyclobutylpiperazin-1-yl)-2-oxoethyl]-3-pyrrolidin-1-yl-5,6,7,8-tetrahydropyrido[3,4-c]pyridazine]
COc1ccc(-c2ccc3c(c2)CCN(CC(=O)N2CCN(C4CCC4)CC2)C3)cn1 [Compound 95, 2-[2-(4-cyclobutylpiperazin-1-yl)-2-oxoethyl]-6-(6-methoxypyridin-3-yl)-1,2,3,4-tetrahydroisoquinoline]
O=C(CN1CCc2nccnc2C1)N1CCN(C2CCC2)CC1 [Compound 228, 6-[2-(4-cyclobutylpiperazin-1-yl)-2-oxoethyl]-5,6,7,8-tetrahydropyrido[3,4-b]pyrazine]

Same assay, conditions: Table II; assay of Example 7

Ki, < 1000 nM:
O=C(CN1CCc2nc(N3CCCC(C(F)(F)F)C3)ccc2C1)N1CCN(C2CCC2)CC1 (stereo not shown) [Compound 682, 6-[2-(4-cyclobutylpiperazin-1-yl)-2-oxoethyl]-2-[3-(trifluoromethyl)piperidin-1-yl]-5,6,7,8-tetrahydro-1,6-naphthyridine]
N#Cc1ccc(-c2ncc3c(n2)CCN(CC(=O)N2CCN(C4CCC4)CC2)C3)cc1 [Compound 683, 4-{6-[2-(4-cyclobutylpiperazin-1-yl)-2-oxoethyl]-5,6,7,8-tetrahydropyrido[4,3-d]pyrimidin-2-yl]benzonitrile]
O=C(CN1CCc2nn(C3CCOCC3)cc2C1)N1CCN(C2CCC2)CC1 [Compound 685]
N#Cc1ccc(-n2cc3c(n2)CCN(CC(=O)N2CCN(C4CCC4)CC2)C3)nc1 [Compound 687, 6-{5-[2-(4-cyclobutylpiperazin-1-yl)-2-oxoethyl]-4,5,6,7-tetrahydro-2H-pyrazolo[4,3-c]pyridin-2-yl}nicotinonitrile]

Same assay, conditions: assay of Example 7; "*" in Ki of Table II

Ki, < 1000 nM:
O=C(CN1CCc2nc(-c3cc(F)cc(F)c3)sc2C1)N1CCN(C2CCC2)CC1 [Compound 355, 5-[2-(4-cyclobutylpiperazin-1-yl)-2-oxoethyl]-2-(3,5-difluorophenyl)-4,5,6,7-tetrahydro[1,3]thiazolo [5,4-c]pyridine]
O=C(CN1CCc2c(cnn2-c2cccnn2)C1)N1CCN(C2CCC2)CC1 [Compound 285, 5-[2-(4-cyclobutylpiperazin-1-yl)-2-oxoethyl]-1-pyridazin-3-yl-4,5,6,7-tetrahydro-1H-pyrazolo[4,3-c]pyridine]
O=C(CN1CCc2cc(-c3cncnc3)ccc2C1)N1CCN(C2CCCCC2)CC1 [Compound 393, 2-[2-(4-cyclohexylpiperazin-1-yl)-2-oxoethyl]-6-pyrimidin-5-yl-1,2,3,4-tetrahydroisoquinoline]
Cc1ccc(-c2nc3c(s2)CN(CC(=O)N2CCN(C4CCC4)CC2)CC3)cc1 [Compound 305, 5-[2-(4-cyclobutylpiperazin-1-yl)-2-oxoethyl]-2-(4-methylphenyl)-4,5,6,7-tetrahydro[1,3]thiazolo [5,4-c]pyridine]
O=C(CN1CCc2c(cnn2-c2ccc(O)nn2)C1)N1CCN(C2CCC2)CC1 [Compound 291, 6-{5-[2-(4-cyclobutylpiperazin-1-yl)-2-oxoethyl]-4,5,6,7-tetrahydro-1H-pyrazolo[4,3-c]pyridin-1-yl}pyridazin-3-ol]
COc1cc(-c2nc3c(s2)CN(CC(=O)N2CCN(C4CCC4)CC2)CC3)cc(OC)c1OC [Compound 326, 5-[2-(4-cyclobutylpiperazin-1-yl)-2-oxoethyl]-2-(3,4,5-trimethoxyphenyl)-4,5,6,7-tetrahydro[1,3]thiazolo [5,4-c]pyridine]
O=C(CN1CCc2nc(C(F)(F)F)ncc2C1)N1CCN(C2CCC2)CC1 [Compound 292, 6-[2-(4-cyclobutylpiperazin-1-yl)-2-oxoethyl]-2-(trifluoromethyl)-5,6,7,8-tetrahydropyrido[4,3-d]pyrimidine]
COc1ccc(-c2nc3c(s2)CN(CC(=O)N2CCN(C4CCC4)CC2)CC3)c(C)c1 [Compound 335, 5-[2-(4-cyclobutylpiperazin-1-yl)-2-oxoethyl]-2-(4-methoxy-2-methylphenyl)-4,5,6,7-tetrahydro[1,3]thiazolo [5,4-c]pyridine]
